Laboratory results taken from patent US20060264419A1 (priority 2003, published 2006).

Assays:
5-HT2A receptors = 5-HT2A receptors (Rattus norvegicus, UniProt P14842); assay: in-vitro affinity to 5-HT2A receptors, displacement of [3H]ketanserine (Example A1); format: binding; conditions: read-out: HT2A IC50
Source text: The 5-HT2A receptors are exposed both to [^3H]ketanserine (a substance which is known for its affinity to the receptor) and also to the test compound. The decrease in the affinity of [^3H]ketanserine to the receptor is an indication of the affinity of the test substance to the 5-HT2A receptor.

5 HT2C receptor = biological target: T1, 5 HT2C receptor (Homo sapiens, UniProt P28335); assay: affinity to the 5 HT2C receptor; format: binding
T1 sequence (P28335 33-458): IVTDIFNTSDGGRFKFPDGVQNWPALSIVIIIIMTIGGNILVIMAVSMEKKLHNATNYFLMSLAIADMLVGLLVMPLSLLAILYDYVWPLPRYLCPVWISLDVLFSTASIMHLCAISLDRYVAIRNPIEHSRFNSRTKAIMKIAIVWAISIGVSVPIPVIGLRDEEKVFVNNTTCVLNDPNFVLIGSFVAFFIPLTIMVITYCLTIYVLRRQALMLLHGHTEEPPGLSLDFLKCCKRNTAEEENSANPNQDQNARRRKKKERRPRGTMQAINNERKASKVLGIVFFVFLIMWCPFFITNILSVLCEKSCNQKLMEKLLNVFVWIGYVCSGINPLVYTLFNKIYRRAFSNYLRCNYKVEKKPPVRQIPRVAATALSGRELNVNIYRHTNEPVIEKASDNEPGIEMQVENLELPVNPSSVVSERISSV

5-HT2A receptors, sequence (P14842 whole entry): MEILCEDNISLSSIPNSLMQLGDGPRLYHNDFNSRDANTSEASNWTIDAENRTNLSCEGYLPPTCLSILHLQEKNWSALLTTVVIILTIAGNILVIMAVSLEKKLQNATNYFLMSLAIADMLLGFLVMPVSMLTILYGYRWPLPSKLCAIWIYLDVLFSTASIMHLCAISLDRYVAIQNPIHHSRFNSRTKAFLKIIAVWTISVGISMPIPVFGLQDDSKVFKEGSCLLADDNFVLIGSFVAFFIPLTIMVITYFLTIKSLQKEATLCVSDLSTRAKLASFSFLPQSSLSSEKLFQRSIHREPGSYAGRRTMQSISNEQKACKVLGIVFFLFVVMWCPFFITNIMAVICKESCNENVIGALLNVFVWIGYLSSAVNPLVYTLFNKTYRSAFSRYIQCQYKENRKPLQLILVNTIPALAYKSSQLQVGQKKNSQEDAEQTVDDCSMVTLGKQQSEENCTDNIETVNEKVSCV

CN1CCN(Cc2cnn(-c3ccc(-c4ccccc4)cc3)c2-c2cccnc2)CC1 [Example 1035, 1-(1-Biphenyl-4-yl-5-pyridin-3-yl-1H-pyrazol-4-ylmethyl)-4-methylpiperazine]
IC50 (5-HT2A receptors): 290 nM
IC50 (5 HT2C receptor): 1000 nM

O=C(c1ccc(F)cc1)C1CCN(Cc2cnn(-c3ccc(-c4ccc(F)cc4)cc3)c2-c2ccccc2Cl)CC1 [Example 1019, 1-{1-{5-(2-Chlorophenyl)-1-(4′-fluoro-biphenyl-4-yl)-1H-pyrazol-4-ylmethyl]piperidin-4-yl}-1-(4-fluorophenyl)methanone]
IC50 (5-HT2A receptors): 230 nM
IC50 (5 HT2C receptor): 40 nM

CCN1CCN(CCc2cnn(-c3ccc(-c4ccc(F)cc4)cc3)c2-c2ccccc2F)CC1 [Example 928, 1-Ethyl-4-{2-[1-(4′-fluorobiphenyl-4-yl)-5-(2-fluorophenyl)-1H-pyrazol-4-yl]ethyl}piperazine]
IC50 (5-HT2A receptors): 28 nM
IC50 (5 HT2C receptor): 1300 nM

O=S1(=O)CCN(Cc2cnn(-c3ccc(-c4ccccc4)cc3)c2-c2ccccc2F)CC1 [Example 945, 4-[1-Biphenyl-4-yl-5-(2-fluorophenyl)-1H-pyrazol-4-ylmethyl]thiomorpholine 1,1-dioxide]
IC50 (5-HT2A receptors): 43 nM
IC50 (5 HT2C receptor): 1000 nM

COCCCNCc1cnn(-c2ccc(-c3ccccc3)cc2)c1-c1ccccc1F [Example 935, [1-Biphenyl-4-yl-5-(2-fluorophenyl)-1H-pyrazol-4-ylmethyl]-(3-methoxypropyl)amine]
IC50 (5-HT2A receptors): 34 nM
IC50 (5 HT2C receptor): 1000 nM

CCN(CC)Cc1cnn(-c2ccc(-c3ccc(F)cc3)cc2)c1-c1ccccc1Cl [Example 951, [5-(2-Chlorophenyl)-1-(4′-fluoro-biphenyl-4-yl)-1H-pyrazol-4-ylmethyl]diethylamine]
IC50 (5-HT2A receptors): 53 nM
IC50 (5 HT2C receptor): 1000 nM

OC1CCN(Cc2cnn(-c3ccc(-c4ccccc4)cc3)c2-c2ccccc2F)C1 (stereo not shown) [Example 904, 1-[1-Biphenyl-4-yl-5-(2-fluorophenyl)-1H-pyrazol-4-ylmethyl]pyrrolidin-3-ol]
IC50 (5-HT2A receptors): 14 nM
IC50 (5 HT2C receptor): 2000 nM

O=C1CCCN1CCCNCc1cnn(-c2ccc(-c3ccccc3)cc2)c1-c1ccccc1F [Example 961, 1-(3-{[1-Biphenyl-4-yl-5-(2-fluoro-phenyl)-1H-pyrazol-4-ylmethyl]amino}propyl)pyrrolidin-2-one]
IC50 (5-HT2A receptors): 64 nM
IC50 (5 HT2C receptor): 1000 nM

CC(C)(C)OC(=O)N1CCN(Cc2cnn(-c3ccc(-c4ccccc4)cc3)c2-c2ccccc2F)CC1 [Example 971, tert-Butyl 4-[1-biphenyl-4-yl-5-(2-fluoro-phenyl)-1H-pyrazol-4-ylmethyl]piperazine-1-carboxylate]
IC50 (5-HT2A receptors): 82 nM
IC50 (5 HT2C receptor): 1000 nM

Fc1ccc(CCN2CCN(Cc3cnn(-c4ccccn4)c3-c3ccccc3F)CC2)c(F)c1 [Example 919, 1-[2-(2,4-Difluorophenyl)ethyl]-4-[5-(2-fluoro-phenyl)-1-pyridin-2-yl-1H-pyrazol-4-ylmethyl]-piperazine]
IC50 (5-HT2A receptors): 23 nM
IC50 (5 HT2C receptor): 1000 nM

CN1CCN(Cc2cnn(-c3ccc(-c4cc(F)ccc4F)cc3)c2-c2ccccc2F)CC1 [Example 953, 1-[1-(2′,5′-Difluorobiphenyl-4-yl)-5-(2-fluoro-phenyl)-1H-pyrazol-4-ylmethyl]-4-methyl-piperazine]
IC50 (5-HT2A receptors): 55 nM
IC50 (5 HT2C receptor): 470 nM

CC(C)c1ccc(-n2ncc(CN3CCN(C)CC3)c2-c2ccccc2F)cc1 [Example 983, 1-[5-(2-Fluorophenyl)-1-(4-isopropylphenyl)-1H-pyrazol-4-ylmethyl]-4-methylpiperazine]
IC50 (5-HT2A receptors): 120 nM
IC50 (5 HT2C receptor): 520 nM

OCCNCc1cnn(-c2ccc(-c3ccccc3)cc2)c1-c1ccccc1F [Example 892, 2-{[1-Biphenyl-4-yl-5-(2-fluorophenyl)-1H-pyrazol-4-ylmethyl]amino}ethanol]
IC50 (5-HT2A receptors): 5.2 nM
IC50 (5 HT2C receptor): 420 nM

CCN1CCN(Cc2cnn(-c3ccc(-c4ccccc4)cc3)c2-c2ccccc2F)CC1 [Example 927, 1-[1-Biphenyl-4-yl-5-(2-fluoro-phenyl)-1H-pyrazol-4-ylmethyl]-4-ethylpiperazine]
IC50 (5-HT2A receptors): 28 nM
IC50 (5 HT2C receptor): 1000 nM

Cc1ccc(-c2ccc(-n3ncc(CN4CCN(C)CC4)c3-c3ccccc3F)cc2)cc1 [Example 916, 1-[5-(2-Fluorophenyl)-1-(4′-methylbiphenyl-4-yl)-1H-pyrazol-4-ylmethyl]-4-methylpiperazine]
IC50 (5-HT2A receptors): 22 nM
IC50 (5 HT2C receptor): 960 nM

O=C1NCN(c2ccccc2)C12CCN(Cc1cnn(-c3ccc(-c4ccccc4)cc3)c1-c1ccccc1F)CC2 [Example 1051, 8-[1-Biphenyl-4-yl-5-(2-fluorophenyl)-1H-pyrazol-4-ylmethyl]-1-phenyl-1,3,8-triaza-spiro[4.5]decan-4-one]
IC50 (5-HT2A receptors): 400 nM
IC50 (5 HT2C receptor): 1000 nM

CN1CCN(Cc2cnn(-c3ccc(OC(F)(F)F)cc3)c2-c2ccccc2F)CC1 [Example 1029, 1-[5-(2-Fluorophenyl)-1-(4-trifluoromethoxy-phenyl)-1H-pyrazol-4-ylmethyl]-4-methyl-piperazine]
IC50 (5-HT2A receptors): 270 nM
IC50 (5 HT2C receptor): 490 nM

CN1CCN(CCc2cnn(-c3ccc(-c4ccc(F)cc4)cc3)c2-c2ccccc2F)CC1 [Example 921, 1-{2-[1-(4′-Fluorobiphenyl-4-yl)-5-(2-fluoro-phenyl)-1H-pyrazol-4-yl]ethyl}-4-methylpiperazine]
IC50 (5-HT2A receptors): 23.3 nM
IC50 (5 HT2C receptor): 730 nM

CN1CCN(Cc2cnn(-c3ccc(-c4cc(F)ccc4F)cc3)c2-c2ccccc2)CC1 [Example 981, 1-[1-(2′,5′-Difluorobiphenyl-4-yl)-5-phenyl-1H-pyrazol-4-ylmethyl]-4-methylpiperazine]
IC50 (5-HT2A receptors): 110 nM
IC50 (5 HT2C receptor): 1000 nM

Fc1ccccc1-c1c(CNCc2nc3ccccc3[nH]2)cnn1-c1ccc(-c2ccccc2)cc1 [Example 969, (1H-Benzoimidazol-2-ylmethyl)-[1-biphenyl-4-yl-5-(2-fluorophenyl)-1H-pyrazol-4-ylmethyl]-amine]
IC50 (5-HT2A receptors): 76 nM
IC50 (5 HT2C receptor): 1000 nM

CN1CCN(NCc2cnn(-c3ccc(-c4ccccc4)cc3)c2-c2ccccc2F)CC1 [Example 903, [1-Biphenyl-4-yl-5-(2-fluorophenyl)-1H-pyrazol-4-ylmethyl]-(4-methylpiperazin-1-yl)amine]
IC50 (5-HT2A receptors): 14 nM
IC50 (5 HT2C receptor): 470 nM

Fc1ccccc1-c1c(CN2CCCC2)cnn1-c1ccc(-c2ccccc2)cc1 [Example 934, 1-Biphenyl-4-yl-5-(2-fluorophenyl)-4-pyrrolidin-1-ylmethyl-1H-pyrazole]
IC50 (5-HT2A receptors): 32 nM
IC50 (5 HT2C receptor): 1000 nM

Fc1ccccc1-c1c(CN2CCCCC2)cnn1-c1ccc(-c2ccccc2)cc1 [Example 931, 1-[1-Biphenyl-4-yl-5-(2-fluorophenyl)-1H-pyrazol-4-ylmethyl]piperidine]
IC50 (5-HT2A receptors): 30 nM
IC50 (5 HT2C receptor): 1000 nM

CCN1CCN(Cc2cnn(-c3ccc(-c4ccc(F)cc4)cc3)c2-c2ccccc2Cl)CC1 [Example 975, 1-[5-(2-Chlorophenyl)-1-(4′-fluoro-biphenyl-4-yl)-1H-pyrazol-4-ylmethyl]-4-ethylpiperazine]
IC50 (5-HT2A receptors): 88 nM
IC50 (5 HT2C receptor): 1000 nM

CN(CCO)Cc1cnn(-c2ccc(-c3ccccc3)cc2)c1-c1ccccc1F [Example 906, 2-{[1-Biphenyl-4-yl-5-(2-fluorophenyl)-1H-pyrazol-4-ylmethyl]methylamino}ethanol]
IC50 (5-HT2A receptors): 16 nM
IC50 (5 HT2C receptor): 1000 nM

CN1CCN(Cc2cnn(-c3ccc(-c4ccc(C#N)cc4)cc3)c2-c2ccccc2F)CC1 [Example 952, 4′-[5-(2-Fluorophenyl)-4-(4-methyl-piperazin-1-ylmethyl)pyrazol-1-yl]biphenyl-4-carbonitrile]
IC50 (5-HT2A receptors): 53 nM
IC50 (5 HT2C receptor): 790 nM

CN1CCN(Cc2cnn(-c3ccc(-c4ccc(F)cc4)cc3)c2-c2ccccc2F)CC1 [Example 902, 1-[1-(4′-Fluorobiphenyl-4-yl)-5-(2-fluoro-phenyl)-1H-pyrazol-4-ylmethyl]-4-methyl-piperazine]
IC50 (5-HT2A receptors): 13.1 nM
IC50 (5 HT2C receptor): 215 nM

CN(C)Cc1cnn(-c2ccc(-c3ccccc3)cc2)c1-c1ccccc1F [Example 914, [1-Biphenyl-4-yl-5-(2-fluorophenyl)-1H-pyrazol-4-ylmethyl]dimethylamine]
IC50 (5-HT2A receptors): 21 nM
IC50 (5 HT2C receptor): 450 nM

CC(C)(C)OC(=O)N1CCN(Cc2cnn(-c3ccc(C(F)(F)F)cc3)c2-c2ccccc2F)CC1 [Example 896, tert-Butyl 4-[5-(2-fluorophenyl)-1-(4-trifluoro-methylphenyl)-1H-pyrazol-4-ylmethyl]-piperazine-1-carboxylate]
IC50 (5-HT2A receptors): 8 nM
IC50 (5 HT2C receptor): 43000 nM

CN1CCN(Cc2cnn(-c3ccc(-c4ccc(F)cc4)cc3)c2-c2ccccc2)CC1 [Example 900, 1-[1-(4′-Fluorobiphenyl-4-yl)-5-phenyl-1H-pyrazol-4-ylmethyl]-4-methylpiperazine]
IC50 (5-HT2A receptors): 13 nM
IC50 (5 HT2C receptor): 310 nM

CN1CCN(Cc2cnn(-c3ccc(-c4cc(F)ccc4F)cc3)c2-c2ccc(F)cc2)CC1 [Example 1021, 1-[1-(2′,5′-Difluorobiphenyl-4-yl)-5-(4-fluoro-phenyl)-1H-pyrazol-4-ylmethyl]-4-methyl-piperazine]
IC50 (5-HT2A receptors): 240 nM
IC50 (5 HT2C receptor): 1000 nM

Fc1ccccc1-c1c(CN2CCNCC2)cnn1-c1ccc(-c2ccccc2)cc1 [Example 924, 1-[1-Biphenyl-4-yl-5-(2-fluorophenyl)-1H-pyrazol-4-ylmethyl]piperazine]
IC50 (5-HT2A receptors): 26 nM
IC50 (5 HT2C receptor): 660 nM
